According to US10745382B2 (BRISTOL-MYERS SQUIBB COMPANY, priority 2015, dated 2020):

Target: T1, PD-1/PD-L1 (Homo sapiens, UniProt Q9NZQ7)
T1 construct: made in house; host or cells: HEK293T
Assay: PD-1/PD-L1 Homogenous Time-Resolved Fluorescence (HTRF) binding assay
Conditions: PD-L1-His 10 nM, PD-1-Ig 20 nM; value given as range class; read-out: Range or IC50
In short: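 Binding was measured by HTRF in dPBS with 0.1% BSA and 0.05% Tween-20. Detection used europium cryptate anti-Ig (1 nM final) and APC anti-His (20 nM final) added over the binding reaction.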

T1 sequence (Q9NZQ7 with tags, fused parts or gaps): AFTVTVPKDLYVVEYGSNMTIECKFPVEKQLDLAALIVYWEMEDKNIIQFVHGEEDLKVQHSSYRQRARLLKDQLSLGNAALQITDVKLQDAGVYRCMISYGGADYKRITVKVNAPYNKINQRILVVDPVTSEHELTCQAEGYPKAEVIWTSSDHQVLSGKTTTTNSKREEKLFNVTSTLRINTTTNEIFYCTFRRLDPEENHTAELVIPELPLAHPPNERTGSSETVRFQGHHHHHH

`Cc1c(COc2cc(OCc3cncc(C#N)c3)c(CN[C@](C)(CO)C(=O)O)cc2Cl)cccc1-c1cccc(OCCCN[C@](C)(CO)C(=O)O)c1Cl` [Example 2023, (R)-2-((3-((3′-((4-((((R)-2-carboxy-1-hydroxypropan-2-yl)amino)methyl)-2-chloro-5-((5-cyanopyridin-3-yl)methoxy)phenoxy)methyl)-2-chloro-2′-methyl-[1,1′-biphenyl]-3-yl)oxy)propyl)amino)-3-hydroxy-2-methylpropanoic Acid] and `Cc1c(COc2cc(OCc3cncc(C#N)c3)c(CN[C@@](C)(CO)C(=O)O)cc2Cl)cccc1-c1cccc(OCCCN2CC[C@@H](O)C2)c1C(F)F` [Example 1514, (S)-2-((5-chloro-2-((5-cyanopyridin-3-yl)methoxy)-4-((2′-(difluoromethyl)-3′-(3-((R)-3-hydroxypyrrolidin-1-yl)propoxy)-2-methyl-[1,1′-biphenyl]-3-yl)methoxy)benzyl)amino)-3-hydroxy-2-methylpropanoic acid] fall in the same range of IC50: 0.21 to 10 nM for the first, 0.21 to 10 nM for the second.

First: Cc1c(COc2cc(OCc3cncc(C#N)c3)c(CN3CCCC[C@H]3C(=O)O)cc2Cl)cccc1-c1cccc(OCCCN[C@@H](Cc2ccncc2)C(=O)O)c1C [Example 2209, (2S)-1-(4-((3′-(3-((S)-1-carboxy-2-(pyridin-4-yl)ethylamino)propoxy)-2,2′-dimethylbiphenyl-3-yl)methoxy)-5-chloro-2-((5-cyanopyridin-3-yl)methoxy)benzyl)piperidine-2-carboxylic Acid]
Second: Cc1c(COc2cc(OCc3cncc(C#N)c3)c(CN[C@H](CO)C(=O)O)cc2Cl)cccc1-c1cccc(OC[C@@H]2CCCN3CCCC[C@H]23)c1C [Example 1042, (R)-2-((5-chloro-2-((5-cyanopyridin-3-yl)methoxy)-4-((2,2′-dimethyl-3′-(((1R,9aR)-octahydro-1H-quinolizin-1-yl)methoxy)-[1,1′-biphenyl]-3-yl)methoxy)benzyl)amino)-3-hydroxypropanoic Acid]
The IC50 of the first is higher: 10 to 100 nM for the first, 0.21 to 10 nM for the second. The second is the more potent here.

`Cc1c(COc2cc(OCc3cncc(C#N)c3)c(CN[C@H](CO)C(=O)O)cc2Cl)cccc1-c1cccc(OCCCN2CC[C@@H](O)C2)c1Cl` [Example 1512, (R)-2-((5-chloro-4-((2′-chloro-3′-(3-((R)-3-hydroxypyrrolidin-1-yl)propoxy)-2-methyl-[1,1′-biphenyl]-3-yl)methoxy)-2-((5-cyanopyridin-3-yl)methoxy)benzyl)amino)-3-hydroxypropanoic acid] and `Cc1c(COc2cc(OCc3cncc(C#N)c3)c(CNC(CO)CO)cc2Cl)cccc1-c1cccc(OCCCN2CCC(CO)CC2)c1C` [Example 2294, 5-((4-chloro-2-(((1,3-dihydroxypropan-2-yl)amino)methyl)-5-((3′-(3-(4-(hydroxymethyl)piperidin-1-yl)propoxy)-2,2′-dimethyl-[1,1′-biphenyl]-3-yl)methoxy)phenoxy)methyl)nicotinonitrile] fall in the same range of IC50: 0.21 to 10 nM for the first, 0.21 to 10 nM for the second.

`Cc1c(COc2cc(OCc3cncc(C#N)c3)c(CNC(CO)CO)cc2Cl)cccc1-c1cccc(OCCCN2CCC(F)(F)C2)c1C` [Example 4116, 5-((4-chloro-5-((3′-(3-(3,3-difluoropyrrolidin-1-yl)propoxy)-2,2′-dimethyl-[1,1′-biphenyl]-3-yl)methoxy)-2-(((1,3-dihydroxypropan-2-yl)amino)methyl)phenoxy)methyl)nicotinonitrile] and `Cc1c(COc2cc(OCc3cncc(C#N)c3)c(CNC[C@H](O)CO)cc2Cl)cccc1-c1cccc(OCCCN(C)CCC(N)=O)c1Cl` [Example 2032, (S)-3-((3-((2-chloro-3′-((2-chloro-5-((5-cyanopyridin-3-yl)methoxy)-4-(((2,3-dihydroxypropyl)amino)methyl)phenoxy)methyl)-2′-methyl-[1,1′-biphenyl]-3-yl)oxy)propyl)(methyl)amino)propanamide] fall in the same range of IC50: 0.21 to 10 nM for the first, 0.21 to 10 nM for the second.
